The values that follow are results of earlier work, collected in patent publication US9969726B2, “Metabotropic glutamate receptor negative allosteric modulators (NAMS) and uses thereof” (Sanford-Burnham Medical Research Institute, priority 2014, dated 2018).

One series relates to SOD1G93A mice. As to conditions: continuous treatment with 1 or 5 mg/kg/day; cited from earlier work.
A further series has as its system SMI-32+ motor neurons. Particulars: abrogated by anti-GDNF antibodies; cited from earlier work.
Series [1] deals with cultured spinal cord astrocytes. Particulars: astrocytes from wild-type and mGlu2 knockout mice, not mGlu3 knockout mice; cited from earlier work.
The next series deals with reserpine-treated rat. Particulars: cited from earlier work.
A further series relates to R6/2 mice. As to conditions: 20 mg/kg daily subcutaneous injection beginning at 4 weeks; cited from earlier work.

Regarding `N[C@@]1(C(=O)O)CO[C@H]2[C@H](C(=O)O)[C@H]21` [LY379268], the neurological disability result in the series with SOD1G93A mice is listed as “beneficial effect on neurological disability”. For the same compound, the “protection of motor neurons against excitotoxic death” value in the series with SMI-32+ motor neurons is given as “protected”. Also, the GDNF levels entry in series [1] is “enhanced GDNF levels”. Moreover, the locomotor activity result in the series on reserpine-treated rat (intracerebroventricular 1, 5, 10, 20 nmol/2 μl, reserpine 5 mg/kg ip) is on record as “dose-dependent increase in locomotor activity”. The “reversal of reserpine-induced akinesia” value with reserpine-treated rat (systemic 0.1, 1, 10 mg/kg ip) is recorded as “did not reverse reserpine-induced akinesia”. In addition, the “phenotype in R6/2 mice” value with R6/2 mice was “dramatically improves the phenotype”.
